Assay results from patent US20090197856A1, “ANTIVIRAL COMPOUNDS” (Genelabs Technologies, Inc., priority 2007, published 2009).
Where two headings read alike, the source gives them in different places.

Target: T1, HCV-NS5b (Hepatitis C virus genotype 1b, UniProt Q9WMX2)
T1 construct: (His)6 (C); made in house; host or cells: XL-1 cells (E. coli), IPTG-inducible plasmid
Assay: HCV-NS5b enzyme assay using homopolymer substrate
Type: biochemical
From the text: The coding sequence of NS5b protein was cloned by PCR from pFKI389luc/NS3-3′/ET as described by Lohmann, V., et al. (1999) Science 285, 110-113 using the primers shown on page 266 of WO 2005/012288
The cloned fragment is missing the C terminus 21 amino acid residues. The cloned fragment was inserted into an IPTG-inducible (isopropyl-β-D-thiogalactopyranoside) expression plasmid that provides an epitope tag (His)6 at the carboxy terminus of the protein.
The recombinant enzyme was expressed in XL-1 cells and after induction of expression, the protein was purified using affinity chromatography on a nickel-NTA (nitrilotriacetic acid) column. Storage condition was 10 mM Tris-HCl pH 7.5, 50 mM NaCl, 0.1 mM EDTA (ethylenediaminetetraacetic acid), 1 mM DTT (dithiothreotol), 20% glycerol at −20° C.
The polymerase activity was assayed by measuring incorporation of radiolabeled UTP into a RNA product using a biotinylated, homopolymeric template. The template was formed by annealing adenosine homopolymer to uridine 20-mer capped with a 5′-biotin group (biotin-U^20) in the ratio of 1:4. Typically, the assay mixture (50 μL) contained 25 mM Tris-HCl (pH 7.5), 40 mM KCl, 0.3 mM MgCl2, 0.05 mM EDTA, 0.2 unit/μL Superase RNAse Inhibitor, 5 mM DTT, 30 μM UTP (Uridine triphosphate), including [^3H]-UTP (uridine triphosphate) at 0.4 μCi/μL with final concentration of 1 μM, and 50 nM of homopolymeric template. Test compounds were initially dissolved in 100% DMSO and further diluted in aqueous buffer containing 5% DMSO. Typically, compounds were tested at concentrations between 2 nM and 50 μM. Reactions were started with addition of enzyme and allowed to continue at 30° C. for 90 minutes. Reactions were quenched with 8 μL of 100 mM EDTA and reaction mixtures (30 μL) were transferred to streptavidin-coated scintillation proximity microtiter plates (FlashPlates) and incubated at room temperature overnight. Incorporation of radioactivity was determined by scintillation counting.
Inhibitor IC50 values were determined by adding test compound as ten point, two-fold serial dilutions in 100% DMSO with a final reaction concentration of 5%. IC50 was calculated by plotting the % inhibition against compound concentration and fitting the data to a constrained four parameter sigmoidal curve, equivalent to the “four parameter logistic equation”:
Where Bottom is the minimum Y value, Top is the maximum Y value, and Hillslope is the slope of the linear portion of the semi-log curve. Top and Bottom were constrained to values of 0% and 100%, respectively. These analyses were performed using Graphpad Prism v.4.0 (Graphpad Software, Inc.) in conjunction with DS Accord for EXCEL 6.0 (Accelrys, Microsoft Corp.).
The table below lists the IC50 values of compounds determined using the homopolymer substrates.

[1] = homopolymer substrate, [3H]-UTP incorporation, 30° C., 90 minutes, read-out: IC50

Row | SMILES | IC50 [1] | IC50
1 | O=C(O)c1ccc2c(C3CCCCC3)c3n(c2c1)CCCn1cc(C2CCNCC2)c2cccc-3c21 [Compound 398] | 204 nM | 
2 | CN1CCC(c2cn3c4c(cccc24)-c2c(C4CCCCC4)c4ccc(C(=O)O)cc4n2CCC3)CC1 [Compound 399] | 220 nM | 
3 | CC(C)N1CCC(c2cn3c4c(cccc24)-c2c(C4CCCCC4)c4ccc(C(=O)O)cc4n2CCC3)CC1 [Compound 400] | 250 nM | 
4 | O=C(O)c1ccc2c(C3CCCCC3)c3n(c2c1)CCCn1cc(C2CCN(CCO)CC2)c2cccc-3c21 [Compound 401] | 140 nM | 
5 | CC(=O)c1cn2c3c(cccc13)-c1c(C3CCCCC3)c3ccc(C(=O)O)cc3n1CCC2 [Compound 402] |  | 168 nM
6 | CCC1CN2CCCn3c(c(C4CCCCC4)c4ccc(C(=O)O)cc43)-c3cccc1c32 (stereo not shown) [Compound 403] | 207 nM | 
7 | O=C(O)c1ccc2c(C3CCCCC3)c3n(c2c1)CCCn1c(C(=O)NCCN2CCCCC2)cc2cccc-3c21 [Compound 404] | 257 nM | 
8 | CN(C)C(=O)c1cc2cccc3c2n1CCCn1c-3c(C2CCCCC2)c2ccc(C(=O)O)cc21 [Compound 405] | 139 nM | 
9 | O=C(O)c1ccc2c(C3CCCCC3)c3n(c2c1)CCCn1c(C(=O)N2CCCCC2)cc2cccc-3c21 [Compound 406] | 136 nM | 
10 | O=C(O)c1ccc2c(C3CCCCC3)c3n(c2c1)CCCn1c(C(=O)O)cc2cccc-3c21 [Compound 407] | 253 nM | 
11 | CCN(CC)C1CCN(C(=O)c2cc3cccc4c3n2CCCn2c-4c(C3CCCCC3)c3ccc(C(=O)O)cc32)CC1 [Compound 408] | 142 nM | 
12 | CN1CCN(C(=O)c2cc3cccc4c3n2CCCn2c-4c(C3CCCCC3)c3ccc(C(=O)O)cc32)CC1 [Compound 409] | 114 nM | 
13 | CCN(C)Cc1c(C(=O)N(C)C)n2c3c(cccc13)-c1c(C3CCCCC3)c3ccc(C(=O)O)cc3n1CCC2 [Compound 410] | 384 nM | 
14 | CN(C)Cc1cc2cccc3c2n1CCCn1c-3c(C2CCCCC2)c2ccc(C(=O)O)cc21 [Compound 411] | 277 nM | 
15 | CN1CCN(C(=O)c2c(Cl)c3cccc4c3n2CCCn2c-4c(C3CCCCC3)c3ccc(C(=O)O)cc32)CC1 [Compound 412] | 179 nM | 
16 | NC(=O)c1cc2cccc3c2n1CCCn1c-3c(C2CCCCC2)c2ccc(C(=O)O)cc21 [Compound 413] | 105 nM | 
17 | O=C(O)c1ccc2c(C3CCCCC3)c3n(c2c1)CCCn1c(CN2CCCCC2)cc2cccc-3c21 [Compound 414] | 98 nM | 
18 | CN1CCN(Cc2cc3cccc4c3n2CCCn2c-4c(C3CCCCC3)c3ccc(C(=O)O)cc32)CC1 [Compound 415] | 170 nM | 
19 | O=C(O)c1ccc2c(C3CCCCC3)c3n(c2c1)CCCn1c2c-3cccc2c2c(=O)[nH][nH]c(=O)c21 [Compound 416] | 146 nM | 
20 | CNC(=O)c1cc2cccc3c2n1CCCn1c-3c(C2CCCCC2)c2ccc(C(=O)O)cc21 [Compound 417] | 99 nM | 

Row | SMILES | IC50 [1] | IC50
21 | NCc1cc2cccc3c2n1CCCn1c-3c(C2CCCCC2)c2ccc(C(=O)O)cc21 [Compound 418] | 144 nM | 
22 | CC(C)N1Cc2c(n3c4c(cccc24)-c2c(C4CCCCC4)c4ccc(C(=O)O)cc4n2CCC3)C1=O [Compound 419] | 180 nM | 
23 | O=C(O)c1ccc2c(C3CCCCC3)c3n(c2c1)CCCn1c2c(c4cccc-3c41)CN(C1CCCCC1)C2=O [Compound 421] | 472 nM | 
24 | O=C(O)c1ccc2c(C3CCCCC3)c3n(c2c1)CC1(CC1)Cn1cc(CN2CCCCC2)c2cccc-3c21 [Compound 427] | 121 nM | 
25 | CCN(C)Cc1cn2c3c(cccc13)-c1c(C3CCCCC3)c3ccc(C(=O)O)cc3n1CC1(CC1)C2 [Compound 428] | 166 nM | 
26 | CCN(CC)CCC(=O)c1cn2c3c(cccc13)-c1c(C3CCCCC3)c3ccc(C(=O)O)cc3n1CCC2 [Compound 429] |  | 99 nM
27 | CC(C)NCCC(=O)c1cn2c3c(cccc13)-c1c(C3CCCCC3)c3ccc(C(=O)O)cc3n1CCC2 [Compound 430] |  | 73 nM
28 | O=C(O)c1ccc2c(C3CCCCC3)c3n(c2c1)CCCn1cc(/C(Cl)=C/CN2CCCCC2)c2cccc-3c21 [Compound 431] | 201 nM | 
29 | CCN(CC)CC#Cc1cn2c3c(cccc13)-c1c(C3CCCCC3)c3ccc(C(=O)O)cc3n1CCC2 [Compound 432] | 324 nM | 
30 | CC(C)NCCCc1cn2c3c(cccc13)-c1c(C3CCCCC3)c3ccc(C(=O)O)cc3n1CCC2 [Compound 433] | 181 nM | 
31 | O=C(O)c1ccc2c(C3CCCCC3)c3n(c2c1)CCCn1cc(CCCN2CCCCC2)c2cccc-3c21 [Compound 434] | 172 nM | 
32 | O=C(O)c1ccc2c(C3CCCCC3)c3n(c2c1)CCCn1cc(CCCN2CCCC2)c2cccc-3c21 [Compound 435] | 171 nM | 
33 | CCN(CC)CCCc1cn2c3c(cccc13)-c1c(C3CCCCC3)c3ccc(C(=O)O)cc3n1CCC2 [Compound 436] | 333 nM | 
34 | O=C(O)c1ccc2c(C3CCCCC3)c3n(c2c1)CCCn1cc(C(=O)N2CCCC2)c2cccc-3c21 [Compound 437] |  | 151 nM
35 | CCN(CC)C(=O)c1cn2c3c(cccc13)-c1c(C3CCCCC3)c3ccc(C(=O)O)cc3n1CCC2 [Compound 438] |  | 69 nM
36 | CN1CCN(C(=O)c2cn3c4c(cccc24)-c2c(C4CCCCC4)c4ccc(C(=O)O)cc4n2CCC3)CC1 [Compound 439] |  | 182 nM
37 | CN(C)CCNC(=O)c1cn2c3c(cccc13)-c1c(C3CCCCC3)c3ccc(C(=O)O)cc3n1CCC2 [Compound 440] |  | 107 nM
38 | CC(C)N(C(=O)c1cn2c3c(cccc13)-c1c(C3CCCCC3)c3ccc(C(=O)O)cc3n1CCC2)C(C)C [Compound 441] |  | 271 nM
39 | COCCNC(=O)c1cn2c3c(cccc13)-c1c(C3CCCCC3)c3ccc(C(=O)O)cc3n1CCC2 [Compound 442] |  | 123 nM
40 | CC(C)NC(=O)c1cn2c3c(cccc13)-c1c(C3CCCCC3)c3ccc(C(=O)O)cc3n1CCC2 [Compound 443] |  | 121 nM

Row | SMILES | IC50 [1] | IC50
41 | N#Cc1cn2c3c(cccc13)-c1c(C3CCCCC3)c3ccc(C(=O)O)cc3n1CCC2 [Compound 444] | 215 nM | 
42 | O=C(O)c1ccc2c(C3CCCCC3)c3n(c2c1)CCCn1cc(-c2nnn[nH]2)c2cccc-3c21 [Compound 445] | 103 nM | 
43 | N=C(N)c1cn2c3c(cccc13)-c1c(C3CCCCC3)c3ccc(C(=O)O)cc3n1CCC2 [Compound 446] | 169 nM | 
44 | NC1CCN2CCn3c(c(C4CCCCC4)c4ccc(C(=O)O)cc43)-c3cc(F)cc1c32 (stereo not shown) [Compound 447] | 59 nM | 
45 | CN1CCN(CCc2cn3c4c(cccc24)-c2c(C4CCCCC4)c4ccc(C(=O)O)cc4n2CCC3)CC1 [Compound 449] | 253 nM | 
46 | CCN(CC)CCc1cn2c3c(cccc13)-c1c(C3CCCCC3)c3ccc(C(=O)O)cc3n1CCC2 [Compound 452] | 325 nM | 
47 | CCN(CC)C(=O)C(=O)c1cn2c3c(cccc13)-c1c(C3CCCCC3)c3ccc(C(=O)O)cc3n1CCC2 [Compound 453] |  | 212 nM
48 | O=C(O)c1ccc2c(C3CCCCC3)c3n(c2c1)CCCn1cc(C(=O)CN2CCCCC2)c2cccc-3c21 [Compound 454] |  | 348 nM
49 | O=C(O)c1ccc2c(C3CCCCC3)c3n(c2c1)CCCn1cc(Cl)c2cccc-3c21 [Compound 455] | 160 nM | 
50 | O=C(O)c1ccc2c(C3CCCCC3)c3n(c2c1)CCCn1ccc2c(Cl)ccc-3c21 [Compound 456] | 125 nM | 
51 | O=C(O)c1ccc2c(C3CCCCC3)c3n(c2c1)CCCn1cc(CN2CCCCC2)c2c(Cl)ccc-3c21 [Compound 457] | 195 nM | 
52 | CN1CCN(Cc2cn3c4c(ccc(Cl)c24)-c2c(C4CCCCC4)c4ccc(C(=O)O)cc4n2CCC3)CC1 [Compound 458] | 196 nM | 
53 | CCN(C)Cc1cn2c3c(ccc(Cl)c13)-c1c(C3CCCCC3)c3ccc(C(=O)O)cc3n1CCC2 [Compound 459] | 160 nM | 
54 | COc1ccc2c3c1ccn3CCCn1c-2c(C2CCCCC2)c2ccc(C(=O)O)cc21 [Compound 460] | 211 nM | 
55 | COc1ccc2c3c1c(CN1CCCCC1)cn3CCCn1c-2c(C2CCCCC2)c2ccc(C(=O)O)cc21 [Compound 461] | 368 nM | 
56 | CCN(C)Cc1cn2c3c(ccc(OC)c13)-c1c(C3CCCCC3)c3ccc(C(=O)O)cc3n1CCC2 [Compound 462] | 414 nM | 
57 | COc1ccc2c3c1c(CNC(C)C)cn3CCCn1c-2c(C2CCCCC2)c2ccc(C(=O)O)cc21 [Compound 463] | 2060 nM | 
58 | O=C(O)c1ccc2c(C3CCCCC3)c3n(c2c1)CCCn1cc(CN2CCCCC2)c2ccnc-3c21 [Compound 464] | 960 nM | 
